Experiment [1] has as its system B/Bris/60/2008 (Victoria). Description: Plaque reduction assay in ST6Gal I-overexpressing MDCK cells. The format is cell-based, influenza B virus. Conditions: for Drug sensitivity: sensitivity of the strain to the named drug.
Experiment [2] has as its system B/Wisconsin/1/2010 (Yamagata). The description is as above. Format: cell-based, influenza B virus. Conditions: for Drug sensitivity: sensitivity of the strain to the named drug.

Experimental findings from article PMC6482079 (European journal of pharmaceutical sciences : official …, 2019) are described below.

SMILES strings stand for the structures.

As for `Cc1cc(OCc2nnc(SC3CCCC3)n2-c2cccnc2)ccc1-c1ccc(S(C)(=O)=O)cc1` [NMS-873], the “SI (selectivity index)” value in experiment [1] (CC50/EC50) was found to be 97; in experiment [2] (CC50/EC50) it was 78. Also, the concentration giving a half-maximal response (EC50) worked out at 28 ± 8 nM in experiment [1] (Influenza B virus, MDCK) and 35 ± 5 nM in experiment [2] (Influenza B virus, MDCK).
As for `CCC(CC)O[C@@H]1C=C(C(=O)O)C[C@H](N)[C@H]1NC(C)=O` [Oseltamivir carboxylate], the Drug sensitivity entry in experiment [1] and in experiment [2] was “Sensitive” each time.
Regarding `NC12CC3CC(CC(C3)C1)C2` [Amantadine, amantadine], the Drug sensitivity entry in experiment [1] and in experiment [2] was “Resistant” each time.

A word on the EC50: it is the concentration that produces a half-maximal response. Higher therefore signals a need for much substance.
